Assay results as given in patent US20020043656A1, “GREEN ORGANIC LUMINOPHOR” (priority 2000, published 2002).
Like-named read-outs stand apart in the source and are kept apart here.

What was measured:
[1] = prior art, cited from earlier work
[2] = cited from earlier work; for Luminescence in toluene η (quantum yield): prior art analogs; for quantum yield η: prior art, medium not stated
[3] = prior art; cited from earlier work
[4] = cited from earlier work; for Luminescence in toluene λmax: prior art analogs
[5] = various reagents; prior art; cited from earlier work
[6] = Fluorescence (luminescence) spectra; assay type: physicochemical; details: for Luminescence in toluene λmax: 365 nm excitation
Experimental: Fluorescence spectra in toluene were measured and absolute fluorescence quantum yields in crystals were determined.
The fluorescence spectra were measured using a setup including a 3MR-3 mirror monochromator, a FEU-1 8 photomultiplier, an M-95 microampermeter. A SVDT-95 lamp was used as the excitation source, the 365 nm exciting line was singled out of its spectrum.

[7] = Absolute fluorescence quantum yield, equal absorption technique; assay type: physicochemical
Experimental: The absolute quantum yield was determined using the equal absorption technique (A. S. Cherkasov, Z. Fiz. Khim. 29, 2209, […]).

[8] = Electron absorption spectra / extinction; assay type: physicochemical
Description: The compound structure was confirmed by electron absorption spectra and IR ones.

Compound | solubility in organic media ([1]; organic media) | solubility in water ([1]; water) | Luminescence in toluene η (quantum yield) [2] | Luminescence in toluene η (quantum yield) ([2]; listed as Lumogen yellow-green) | quantum yield η [2] | extinction coefficient in the absorption maximum [3] | luminescence spectral maximum wavelength ([4]; depending on the luminophor concentration) [nm] | Luminescence in toluene λmax [4] [nm] | chemical stability [5] | λmax.lum ([4]; prior art, medium not stated) [nm] | Luminescence in toluene λmax [6] [nm] | Luminescence in toluene λmax ([6]; listed as Example 1) [nm] | λmax.lum ([6]; medium not stated) [nm] | Luminescence in toluene η (quantum yield) ([7]; in toluene solution) | quantum yield ([7]; medium not stated) | quantum yield of photoluminescence η ([7]; solid state (vacuum-deposited film)) | maximum absorption (extinction coefficient) [8] | Absorption λ ([8]; in toluene) [nm]
O=c1c2cccc3cccc(c32)c2nc3ccccc3n12 [Prior art emission range analog, 1,8-naphthoylene-1′,2′-benzimidazol] | soluble in organic media | essentially water-insoluble | 0.5 | > 0.5 | > 0.5 | 8000 | 490 to 510 | 490 | chemically stable against various reagents |  |  |  |  |  |  |  |  | 
COc1cccc2c(-c3ccc(N(C)C)cc3)c3nn(C)cc3nc12 [Prior art structure analog, 2-methyl-5-methoxy-9-(4-dimethylaminophenyl)-2H-pyrazolo[4,3-b]quinoline] |  |  | 0.8 |  | 0.8 |  |  | 510 |  | 510 |  |  |  |  |  |  |  | 
1-phenyl-5-(p-methoxyphenyl)-3-[1,8-naphthoylene-1′,2′-benzimidazol-4-yl]-2-pyrazol |  |  |  |  |  |  |  |  |  |  | 510 | 495 | > 510 | 0.85 | approximately 0.82+0.05 | 0.78 | ≤ 30,000 | 412
